A value given as a limit tells only on which side of the number the result lay.

Broadly, the melting point is the temperature of the solid-liquid transition.

In turn, `CCOC(=O)c1cnc2c([N+](=O)[O-])cc(CN3CCOCC3)cc2c1O` showed a melting point of 214 to 216 °C.
The value for `CCn1cc(C(=O)O)c(=O)c2cc(F)c(N3CCN(S(=O)(=O)c4ccccc4)CC3)c(F)c21` was 234 to 235 °C; that for `CCOC(=O)C1=C(C)NC(C)=C(C(=O)OCC)C1c1c(Cl)cccc1Cl` was 134 to 135 °C; that for `COC(=O)c1ccc(C(O)c2cc3cc(C(F)(F)F)ccc3n2S(=O)(=O)c2ccc(C(C)C)cc2)cc1` (stereo unspecified) was 68 °C.
To `CC(C)(C=O)C(O)(COc1cccc2ccccc12)Cn1ccnc1` (stereo unspecified) belongs 147 °C; to `CCOC(=O)c1ccc(/C=C(\C)c2ccc3c(c2)CCCCO3)cc1`, 60 to 61 °C; to `COc1nc(C(F)(F)F)cc(=O)n1-c1cc(OC(C)=O)c(Cl)cc1F`, 110 to 112 °C.
The value for `CC(=O)NCc1cccc(CCCOCCCCCCNCC(O)c2cc(Cl)c(N)c(Cl)c2)c1` (stereo unspecified) was 91 to 94 °C.
Take `c1n[nH]c2c1CCc1[nH]ncc1-2`: the melting point lay within 219 to 221 °C.
To `CC(C)Oc1cncc(Br)c1` belongs 144 to 146 °C; to `COc1cc(Nc2nccc(-c3ccc(NCCN)nc3)n2)cc(OC)c1OC`, 117 to 118 °C; to `C/C=C/CC(=O)N[C@H]1CC[C@H](CCN2CCC(c3cccc4c3CCO4)CC2)CC1`, 196 °C.
`O=S(=O)(c1nc(-c2ccc(Cl)c(Cl)c2)c(-c2cccs2)[nH]1)C(F)(F)C(F)F` registered a melting point of 158 to 160 °C.
To `Cc1c2c(c(Oc3ccc(C(C)C)cc3)c(C)c1NC(=O)CC(C)(C)C)OC(C)(C)C2` belongs 148 to 149 °C; to `Cn1c(=O)c2conc2n(C)c1=O`, 170 to 171 °C; to `O=C(O)c1cc(Cl)c(Cl)cc1C(=O)Nc1cccc(-c2ccnc3c(C(=O)c4cccs4)cnn23)c1`, over 270 °C.
Compound `C=CCNc1nc(NCc2ccccc2)nc2ccc([N+](=O)[O-])cc12` yielded a melting point of 216 to 217 °C.
Turning to `CC(C)(C)OC(=O)N1CCC(c2nc3cc(-c4ccc(C(N)=O)c(Cl)c4)ccc3o2)CC1`, the melting point was 169 to 171 °C.
To `O=C1c2c(Cl)cccc2-n2cnc(-c3noc(CCl)n3)c2[C@@H]2CCN12` belongs 211 to 212 °C; to `Cn1cc(CCl)c(-c2ccc(Cl)cc2C(=O)c2ccccc2F)n1`, 153 to 155 °C.
To `[N-]=[N+]=NCCOc1ccc(C(=C(c2ccc(F)cc2)C(F)(F)F)c2ccccc2)cc1` belongs 100 to 110 °C; to `COc1cc(N)c(Cl)cc1C(=O)NCC1CCC(C)N1Cc1ccccc1` (stereo unspecified), 136 to 137 °C.
The compound `Cc1ccccc1C=C(C(=O)O)C(=O)O` gave a melting point of 197 to 200 °C.
To `CNC(=NC#N)NCc1cccnc1` belongs 183 to 184 °C; to `O=C(O)c1cc(=O)c2c(OCC(O)COc3ccc(Br)cc3)cccc2o1` (stereo unspecified), 192 to 194 °C; to `CCOC(=O)CCc1cc2c(c(Br)c1Br)OCC2`, 42 to 43 °C.
To `COc1cc(C(=O)NS(=O)(=O)c2ccccc2C)ccc1Cc1cn(C)c2ccc(CC(C)C(=O)NCC3CCCC3)cc12` (stereo unspecified) belongs 119 to 126 °C; to `COc1cc(C(=O)N2CCN(C(=O)C3=Cc4cc(OCc5ccccc5)c(OCc5ccccc5)cc4CCC3)CC2)cc(OC)c1OC`, 130 to 132 °C.
`Cn1c(C(F)(F)F)c(I)c(=O)n(C)c1=O` gave a melting point of 149 to 151 °C.
To `O=c1oc(-c2ccccc2)cc(O)c1Sc1c(O)cc(-c2ccccc2)oc1=O` belongs over 240 °C; to `Cc1ccccc1C1CC(=O)c2c(C(F)(F)F)coc2C1` (stereo unspecified), 105 to 107 °C; to `CC(=O)OC(CCCCl)C(=O)OCc1ccccc1` (stereo unspecified), 40 to 41 °C.
Compound `Cc1noc(NS(=O)(=O)c2ccccc2-c2ccc(-c3ncco3)cc2CN2CCN(C)C2=O)c1C` had a melting point of 105 to 115 °C.
To `CN1CC(O)C(O)C(O)C1CO` (stereo unspecified) belongs 142 to 143 °C.
Turning to `O=C1CCN(Cc2ccc3c(c2)OCO3)CC1C(c1ccccc1)c1ccccc1` (stereo unspecified), the melting point was 113 to 114 °C.
With `COC(=O)C(Cc1cc(OC)cc(OC)c1)c1ccc(Oc2ccc(CC3SC(=O)NC3=O)cc2)cc1` (stereo unspecified), the melting point lay in the range of 125 to 128 °C.
The value for `COc1ccc(C=CC2=NNC(C)Cc3cc(OC)c(OC)cc32)c(OC)c1` (stereo unspecified) was 118 to 120 °C; that for `OCCCCCCCCCCCCCCCCc1c[nH]c2ccccc12` was 79 to 80 °C; that for `NC(=O)c1sc2nccc(N3CCOCC3)c2c1N` was 232 to 234 °C.
To `CCCCCCCCCCCCS(=O)(=O)CCOc1ccc(C/C=C(\OC(=O)CC)C(F)(F)F)cc1` belongs 60 to 63 °C; to `FC(F)(F)c1ccc(-c2nc(Br)cc(Br)n2)cc1`, 87 °C.
The value for `Cc1cccc(-c2sc(N)nc2-c2ccnc(-c3ccc(OC(F)(F)F)cc3)c2)n1` was 232 °C; that for `NC(=O)c1ccc(O)c(I)c1` was 90 to 95 °C; that for `OC(C1=NCC2CCCCN12)(c1ccccc1)c1ccccc1` (stereo unspecified) was 131 to 133 °C.
In turn, `Cc1ccc(Cn2c3c(c4cc(OCc5ccccc5)ccc42)C(=O)C(=O)OC3)cc1` returned a melting point of 206 to 207 °C.
Compound `Cc1ccc(NCC2CCNCC2)c(C(=O)Nc2ccc(F)cn2)c1` came in with a melting point of 147 to 149 °C.
To `Cc1c(C2CCN(Cc3ccccc3)CC2)n[nH]c1-c1ccc(Cl)cc1` belongs 188 to 190 °C; to `CCOC(=O)c1cnc(-c2ccccc2)nc1Nc1ccccc1`, 98 to 100 °C; to `CCOc1ccc(-c2ccc3c(c2)C=C(C(=O)OC)CCN3C=O)cc1F`, 126 to 128 °C.
With `O=c1[nH]c2cc(Br)c3c(c2[nH]c1=O)CN(CCCc1ccccc1)CC3`, the melting point was in the range of 288 to 293 °C.
The value for `Cc1ccc(C2CC(=O)OC(=O)C2)cc1` was 160 to 162 °C; that for `NCCOc1c(Cl)ccc2c1c1cccc3c1n2C(c1ccccc1)CO3` (stereo unspecified) was 127 to 128 °C; that for `CCOc1ccc(-c2nc(C=Cc3ccccc3)cs2)cc1OCC` was 94 to 95 °C.
The value for `O=S(=O)(NCc1ccc(Cl)cc1)c1cc(Cl)c2cccnc2c1O` was 189 to 190 °C; that for `COc1cccc(C(=O)OCC2(COC(=O)c3cccc(OC)c3)c3ccccc3-c3ccccc32)c1` was 129 to 130 °C; that for `Brc1cccc2c1Cc1ccccc1-2` was 102 to 103 °C.
The value for `COCSCCNC(=C[N+](=O)[O-])NCC(O)c1ccccc1` (stereo unspecified) was 107 to 110 °C; that for `O=c1ccc(-c2c(-c3ccccc3)nn3ccccc23)nn1Cc1nccs1` was 130 to 132 °C.
The compound `COC(=O)c1cc2cc(OC)ccc2cc1/N=C/N(C)C` came in with a melting point of 160 to 162 °C.
The value for `Cc1ccc2c(c1)oc1c(C(=O)NN3CCOCC3)nn(-c3ccc(Cl)cc3Cl)c12` was 178 to 180 °C.
With `CCOCCNCc1ccc(C(=O)Nc2nc(-c3ccccc3)c(-c3ccc(=O)n(C(C)C)n3)s2)cc1`, the melting point was 153 to 154 °C.
To `CC1C(=O)N(c2ccc(O)cc2)C(=S)N1c1ccc(Oc2ccccc2)cc1` (stereo unspecified) belongs 202 to 204 °C; to `COc1c(C2CCN(CCCCNC(=O)c3ccc(-c4ccc(Cl)cc4)nc3)CC2)ccc2c1CCCC2`, 184 to 186 °C; to `CNC(=O)c1c(-c2ccccc2)noc1CC(O)c1ccc(C)cc1` (stereo unspecified), 148 to 150 °C.
The value for `COC(=O)C(Cc1ccc(OCCc2nc(-c3ccccc3)oc2C)cc1)C(=O)O` (stereo unspecified) was 126 to 127 °C.
The value for `COC(=O)c1cc(OC(C)=O)c2cc(-c3ccc4c(c3)C(C)(C)CCC4(C)C)ccc2c1C` was 170 °C.
With `CCCCCCCCCCCCCCCCCCNC(=O)NCCCS(C)=O` (stereo unspecified), the melting point was determined as 105 °C.
The value for `O=C(NCCCc1ccncc1)N(CCC12CC3CC(CC(C3)C1)C2)Cc1ccco1` was 128 to 130 °C; that for `CCCCN(CCCC)CCCCCOc1ccc(S(=O)(=O)c2c(CC)cn3ccccc23)cc1` was 89 to 90 °C; that for `CN(C)c1ccc(NC(=O)N(CC2CCC(CN(C(=O)Nc3ccc(N(C)C)cc3)C3C4CC5CC(C4)CC3C5)CC2)C2C3CC4CC(C3)CC2C4)cc1` (stereo unspecified) was 182 to 185 °C.
To `O=C(O)CCc1ccc(OCCCc2cc(-c3ccc(C(F)(F)F)cc3)no2)cc1` belongs 174 to 175 °C; to `COc1ccc2[nH]c(=O)nc(C)c2c1OC`, 248 to 249 °C; to `CCP(=O)(O)CC(=O)CN`, 189 to 192 °C.
Compound `COc1ccc(C(O)(c2ccc(OC)cc2)[C@@H](N)C2CCCCC2)cc1` showed a melting point of 146 to 147 °C.
The value for `CCOc1nc(Cc2ccc(Cl)cc2)nc(O)c1NC(=O)c1ccco1` was 91.5 to 92.5 °C; that for `CCCCCOC(=O)C1=C(C)NC(C)=C(C(=O)NC(C)C)C1c1ccccc1[N+](=O)[O-]` (stereo unspecified) was 186 to 189 °C; that for `CC(=O)NN=C(c1ccccc1)c1cc(C(C)(C)C)c(O)c(C(C)(C)C)c1` was 205 to 206 °C.
To `COC(=O)c1ccc(C(=O)O)c(NC(=O)C(F)(F)F)c1` belongs 185 to 186 °C; to `CC1OC(n2cc(F)c(NC(=O)c3ccoc3)nc2=O)C(O)C1O` (stereo unspecified), 173 to 174 °C; to `CCC(=O)Nc1ccc(OCc2nc(Cl)ccc2Cl)cc1`, 169 to 171 °C.
For the compound `COC(=O)Cc1ccc(OCC(C)NC(C)C(O)c2ccccc2)cc1` (stereo unspecified), the melting point was 122 °C.
To `CN1C(=O)CC[C@]2(C)c3ccc(-c4ccccc4[N+](=O)[O-])cc3CC[C@@H]12` belongs 130 to 131 °C; to `CNC(=O)C(c1ccccc1F)N(C(=O)CNC(=O)Nc1cccc(C)c1)c1cccc(OC)c1` (stereo unspecified), 110 °C.
To `O=C(CNC(=O)c1cc([N+](=O)[O-])ccc1F)OCc1ccccc1` belongs 56 to 58 °C.
The value for `CC#COc1ccc2c(C)cc(=O)oc2c1` was 140 to 141 °C; that for `CCOC(=O)c1ccc(NC(=O)Oc2ccccc2)cc1` was 156 to 162 °C.

For the origin of these results see a melting point compilation (Tetko et al.; mined from patent text by program, amines drawn as free bases though some values may be those of a salt).
